Source: patent US6465499B1 (priority 1996, dated 2002)

Legend:
Phytophthora infestans = assay type: in vivo; details: tomato young plants, protective spray, rate of application 100 g/ha, evaluated 3 days after inoculation; 0% = as control, 100% = no disease

| SMILES | melting point [°C] | Efficacy in % (Phytophthora infestans) [%] |
| --- | --- | --- |
| Cc1noc(C)c1S(=O)(=O)n1c(=O)sc2c(C(F)(F)F)cc([N+](=O)[O-])cc21 [Example 6] | 210 to 213 | 93 |
| Cc1noc(C)c1S(=O)(=O)n1c(=O)oc2ccc(Cl)cc21 [Example 4] | 183 to 187 | 86 |
| Cc1noc(C)c1S(=O)(=O)n1c(=O)sc2c([N+](=O)[O-])cc(C(F)(F)F)cc21 [Example 5] | 129 to 133 | 100 |
| Cc1noc(C)c1S(=O)(=O)n1c(=O)sc2c(C(F)(F)F)cc(C(F)(F)F)cc21 [Example 7] | 152 to 156 | 93 |
| Cc1noc(C)c1S(=O)(=O)n1c(=O)oc2c(Cl)cc(Cl)cc21 [Example 3] | 164 to 166 | 93 |
